Results reported in the supplement of paper PMC7023306.
± gives the uncertainty stated by the source.

Assay: TIMS collision cross section in N2 (TIMS CCS N2); higher = larger gas-phase ion size
Conditions: drift gas: N2 (99.4% N2, 0.6% O2), calibration: Stow et al. 2017 values for Agilent ESI-L Low Concentration Tune Mix, ionization: negative ESI
Experimental: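 Authentic plant natural product standards (10-50 ppm in 80% methanol) were analysed by UHPLC (BEH C18, 60 °C) coupled to a Bruker timsTOF Pro in negative ESI with N2 drift gas. TIMS collision cross sections were computed from mobility peak apices after calibration with Agilent Tune Mix using Stow et al. reference values. Values are the average of triplicate runs on different days, reported per annotated ion species (deprotonated ion, adducts, dimer, oxidized ion).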

| SMILES | TIMS collision cross section in N2 (ion species: [M-H]-) | TIMS collision cross section in N2 (ion species: [2M-H]-) | TIMS collision cross section in N2 (ion species: [M-3H]-) | TIMS collision cross section in N2 (ion species: [M-H+Na+HCO2H]-) |
| --- | --- | --- | --- | --- |
| Oc1cc(O)c2c(c1)OC(c1ccc(O)c(O)c1)C(O)C2 (single isomer, unassigned; (+)) [(+)-Catechin] | 157.43 ± 0.095 Å² |  |  |  |
| COc1ccc(C=CC(=O)c2ccccc2O)cc1 [2'-Hydroxy-4-methoxychalcone] | 164.38 ± 0.046 Å² |  |  |  |
| COc1ccc(C2CC(=O)c3ccc(O)cc3O2)cc1OC (stereo not given) [3',4'-Dimethoxy-7-hydroxyflavanone] | 180.72 ± 0.067 Å² | 241.38 ± 0.035 Å² |  |  |
| O=c1c(O)c(-c2cc(O)c(O)c(O)c2)oc2cc(O)ccc12 [3,7,3',4',5'-Pentrahydroxyflavone (robinetin)] | 164.55 ± 0.2 Å² |  | 160.55 ± 0.095 Å² |  |
| O=C1c2ccc(O)cc2O[C@H](c2ccc(O)c(O)c2)[C@H]1O [3,7,3',4'-Tetrahydroxyflavanone (fustin)] | 154.57 ± 0.12 Å² |  | 160.22 ± 0.11 Å² |  |
| CC1(C)CCC2(C(=O)OC3OC(CO)C(O)C(O)C3O)CCC3(C)C(=CCC4C5(C)CC(O)C(OC6OC(CO)C(O)C(O)C6O)C(C)(C(=O)O)C5CCC43C)C2C1 (stereo not given) [3-Glc, 28-Glc medicagenic acid] | 300.86 ± 0.71 Å² |  |  |  |
| COc1cc(OC)c(C(=O)C=Cc2ccc(O)cc2)c(OC)c1 [4-Hydroxy-2',4',6'-trimethoxychalcone (flavokawain A)] | 182.42 ± 0.24 Å² |  |  |  |
| COc1ccc(C2CC(=O)c3c(ccc(O)c3O)O2)cc1OC (stereo not given) [5,6-dihydroxy-3',4'-dimethoxy-flavanone] | 176.56 ± 0.17 Å² |  | 179.11 ± 0.078 Å² | 192.04 ± 0.13 Å² |
| COc1cc(-c2cc(=O)c3c(O)c(OC)c(O)cc3o2)cc(OC)c1O [5,7,4'-trihydroxy-6,3',5'-trimethoxyflavone] | 183.59 ± 0.17 Å² |  |  | 202.32 ± 0.32 Å² |
| COc1cc(OC)c2c(c1)OC(c1ccc(O)cc1)CC2=O (stereo not given) [5,7-DIMETHOXY-4'-HYDROXYFLAVANONE] | 174.1 ± 0.31 Å² |  |  |  |

The remaining lines, values ahead:

| TIMS collision cross section in N2 (ion species: [M-H]-) | TIMS collision cross section in N2 (ion species: [2M-H]-) | TIMS collision cross section in N2 (ion species: [M-3H]-) | TIMS collision cross section in N2 (ion species: [M-H+Na+HCO2H]-) | SMILES |
| --- | --- | --- | --- | --- |
| 158.57 ± 0.14 Å² |  |  |  | O=C(/C=C/c1ccccc1)c1ccc(O)cc1O [2',4'-Dihydroxychalcone] |
| 163.91 ± 0.055 Å² |  |  |  | COc1ccc(C(=O)/C=C/c2ccccc2)c(O)c1 [2'-Hydroxy-4'-methoxychalcone] |
| 149.95 ± 0.12 Å² |  |  |  | O=c1cc(-c2ccccc2O)oc2ccccc12 [2'-Hydroxyflavone] |
| 161.78 ± 0.026 Å² | 217.7 ± 0.21 Å² | 155.92 ± 0.067 Å² |  | O=c1c(-c2ccc(O)c(O)c2)coc2cc(O)ccc12 [3',4',7-Trihydroxyisoflavone] |
| 154.89 ± 0.41 Å² | 218.5 ± 0.57 Å² |  |  | O=c1cc(-c2cccc(O)c2)oc2ccccc12 [3'-Hydroxyflavone] |
| 172.02 ± 0.17 Å² | 276.72 ± 0.47 Å² |  |  | COc1ccc(-c2cc3ccc(O)cc3oc2=O)cc1OC [3(3',4'-Dimethoxyphenyl)-7-hydroxycoumarin] |
| 161.7 ± 0.14 Å² |  | 161.13 ± 0.17 Å² |  | O=c1c(O)c(-c2cccc(O)c2O)oc2ccc(O)cc12 [3,6,2',3'-Tetrahydroxyflavone] |
| 161.99 ± 0.064 Å² |  |  | 183.33 ± 0.05 Å² | O=c1c(O)c(-c2ccc(O)cc2O)oc2ccc(O)cc12 [3,6,2',4'-Tetrahydroxyflavone] |
| 152.04 ± 0.28 Å² |  |  | 172.34 ± 0.36 Å² | O=c1c(O)c(-c2ccccc2)oc2ccccc12 [3-Hydroxyflavone] |
| 151.91 ± 0.13 Å² |  |  |  | O=c1cc(-c2ccc(O)cc2)oc2ccccc12 [4'-Hydroxyflavone] |
| 156.4 ± 0.18 Å² | 244.46 ± 0.1 Å² |  |  | O=c1cc(-c2ccc(O)c(O)c2)oc2cccc(O)c12 [5,3',4'-Trihydroxyflavone] |
